Assay results reported in article PMC9276676, “Difluoromethylornithine (DFMO) and AMXT 1501 inhibit capsule biosynthesis in pneumococci” (Scientific Reports, 2022).
Where two headings read alike, the source gives them in different places.

Columns and labels:
[1] = molecular target: SP_0916 (arginine decarboxylase, ADC) (Streptococcus pneumoniae, UniProt A0A0H2UPK4); assay: Inhibition of decarboxylase activities of recombinant SP_0916 (LC-MS); type: biochemical; conditions: 10 mM substrate, 15 min, 37 °C
Sequence of SP_0916 (arginine decarboxylase, ADC) (A0A0H2UPK4 entry or part of it): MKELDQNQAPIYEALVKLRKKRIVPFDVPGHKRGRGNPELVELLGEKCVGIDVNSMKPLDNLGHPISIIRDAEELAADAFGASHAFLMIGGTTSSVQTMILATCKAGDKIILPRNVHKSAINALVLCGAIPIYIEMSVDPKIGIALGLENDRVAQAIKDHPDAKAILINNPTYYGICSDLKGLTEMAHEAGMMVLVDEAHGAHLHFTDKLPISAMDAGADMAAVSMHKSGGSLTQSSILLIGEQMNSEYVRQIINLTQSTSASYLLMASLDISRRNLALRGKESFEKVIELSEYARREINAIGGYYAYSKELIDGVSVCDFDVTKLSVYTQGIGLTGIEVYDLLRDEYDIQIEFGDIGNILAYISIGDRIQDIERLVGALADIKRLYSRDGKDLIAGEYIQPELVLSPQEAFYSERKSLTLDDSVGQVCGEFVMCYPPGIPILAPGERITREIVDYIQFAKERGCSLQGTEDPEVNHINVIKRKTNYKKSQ
Description: We determined the impact of DFMO (ODC/ADC inhibitor) and α-difluoromethylarginine (DFMA, an ADC inhibitor) on the decarboxylase activities of SP_0916. BL21(DE3) cells expressing recombinant His tag SP_0916 were lysed with B-PER reagent buffer (Thermo Fisher Scientific, Waltham, MA, USA), lysate separated by loading unto HisPur Cobalt Spin Column (Thermo Fisher Scientific, Waltham, MA, USA), desalted using Sephadex G-25 PD-10 column (GE Healthcare, Chicago, IL, USA), and protein concentration estimated using the Pierce BCA Protein Assay kit (Thermo Fisher Scientific, Waltham, MA, USA).
SP_0916-encoded protein (0.926 µmol L^−1) was mixed with 10 mM substrate (arginine, lysine or ornithine) in the reaction mixture (500 µL reaction volume, 50 mM Tris–HCl, pH 8.0) that contains 2.5 mM MgSO4 and 0.6 mM PLP. DFMO was diluted in water to 3–900 mM and added to the reaction mixture after 5 min preincubation at 37 °C in the dark. DFMA stock was made in a similar manner but was diluted in water to 0.3–1000 µM. The enzyme and inhibitor were incubated at 37 °C for 15 min in the dark and the reaction terminated with 0.3 M perchloric acid. After incubation on ice for 15 min, the samples were neutralized with 25 µL of 10 N KOH and extracted with 1 mL of 1-butanol. The organic layer was dried under nitrogen gas and reconstituted with 100 µL of water containing Spermidine-d8 and Glucose-d7 as an internal standard. Analysis of the extracts was performed on a Surveyor LC–MS system. 5 µL of reconstitution was injected to the LC–MS system for detection of the products (agmatine, cadaverine or putrescine). We used internal standards to normalize and determine the peak intensity (area ratio) for each metabolite detected. Enzyme activity without inhibitor is referred to as a control activity. All experiments were performed in triplicate. The concentration of inhibitor that inhibited 50% of the control activity (IC50 value) was determined by varying the concentration of the indicated DFMO or DFMA and measuring the decarboxylase activity. Sigma Plot v. 12 was used to fit the curve through the points and IC50 values were interpolated from the fitted curve.

[2] = test system: S. pneumoniae TIGR4; type: cell-based, Streptococcus pneumoniae; conditions: DFMO 137 mM (1/2 MIC), n = 5
Description: This was done to directly compare possible changes in intracellular concentrations of polyamines and capsule precursors as a result of DFMO inhibition of polyamine synthesis to the earlier report where polyamine synthesis was affected via gene deletion in TIGR4[24]. […] Cells were harvested (5000×g, 10 min, 4 °C), re-suspended in extraction solvent [40% acetonitrile, 40% methanol, 20% water with formic acid (0.1 M)] and transferred to bead-beater tubes (MP Biomedicals, Irvine, CA, USA). Cells were lysed using a FastPrep-24™ Classic (45 s, 6.5 m/s, RT, 3 times) (MP Biomedicals, Irvine, CA, USA) and incubated on ice (5 min after each spin). TIGR4 lysates were clarified (6000×g, 5 min, 4 °C), and metabolite differentiation and detection were performed using published protocols[28],[29]. Liquid chromatography-mass spectrometry-based (LC–MS) metabolomic analysis was performed with an Agilent Accurate Mass 6230 TOF coupled with an Agilent 1290 LC system using a Cogent Diamond Hydride Type C column. Briefly, the mobile phase consisted of the following: solvent A (ddH2O with 0.2% formic acid) and solvent B (acetonitrile with 0.2% formic acid). The gradient used was as follows: 0–2 min, 85% B; 3–5 min, 80% B; 6–7 min, 75% B; 8–9 min, 70% B; 10–11.1 min, 50% B; 11.1–14 min 20% B; 14.1–24 min 5% B followed by a 10 min re-equilibration period at 85% B at a flow rate of 0.4 mL/min. Mass axis dynamics was calibrated by continuous infusion of a reference mass solution using an isocratic pump. […] Metabolite identities were searched for using a mass tolerance of < 0.005 Da. Metabolite concentrations from the 5 biological replicates were normalized to biomass based on measurement of residual peptide content in individual samples using the Pierce BCA Protein Assay kit (Thermo Fisher Scientific, Waltham, MA, USA). Data were analyzed using Profinder B.07.00 software (Agilent Technologies, Santa Clara, CA, USA). Extracted molecular features detected in the mass analyzer were identified using accurate mass values and used to generate empirical molecular formulae using an in-house metabolite database that included known intermediates, amino acid precursors and polyamines and their derivatives. Statistical analysis of metabolite peak intensity data was performed using MetaboAnalyst 4.0[30]. Data were normalized (quantile), log transformed and significant fold change between WT and DFMO-treated WT were identified by Student’s t-test (p ≤ 0.05).

For NCCC[C@](N)(C(=O)O)C(F)F [DFMO, α-difluoromethylornithine], the IC50 ([1]; DFMO IC50, ornithine to putrescine) was 26.6 ± 4.1 mM, the IC50 ([1]; arginine to agmatine, read-out: DFMO IC50) was 75.1 ± 5.5 mM and the IC50 ([1]; lysine to cadaverine, read-out: DFMO IC50) was 8.2 ± 0.2 mM. For the same compound, the “5,10-methylenetetrahydrofolate, fold change TIGR4+DFMO /TIGR4” value [2] was 4.4, the “5-phospho-α-D-ribose 1-diphosphate (PRPP), fold change TIGR4+DFMO /TIGR4” value [2] was 3.8 and the “6-Phosphogluconate, fold change TIGR4+DFMO /TIGR4” value [2] was 7.8. The “Agmatine, fold change TIGR4+DFMO /TIGR4” value [2] was -2.0, the “Arginine, fold change TIGR4+DFMO /TIGR4” value [2] was 1.1 and the “Cadaverine, fold change TIGR4+DFMO /TIGR4” value [2] was -1.5. The “Fructose 6-phosphate, fold change TIGR4+DFMO /TIGR4” value [2] was -16.8, the “Fucose, fold change TIGR4+DFMO /TIGR4” value [2] was -1.3 and the “GSH, fold change TIGR4+DFMO /TIGR4” value [2] was -23.2. The “GSSG, fold change TIGR4+DFMO /TIGR4” value [2] was -41.3, the “Galactose 1-phosphate, fold change TIGR4+DFMO /TIGR4” value [2] was -16.8 and the “Glucosamine 6-phosphate, fold change TIGR4+DFMO /TIGR4” value [2] was -21.0. For the same compound, the “Glucose 6-phosphate, fold change TIGR4+DFMO /TIGR4” value [2] was 10.6, the “Glyceraldehyde 3-phosphate, fold change TIGR4+DFMO /TIGR4” value [2] was -308.6 and the “Lysine, fold change TIGR4+DFMO /TIGR4” value [2] was -1.7. The “Methionine, fold change TIGR4+DFMO /TIGR4” value [2] was -1.8, the “N-Acetylspermidine, fold change TIGR4+DFMO /TIGR4” value [2] was -1.6 and the “NADH, fold change TIGR4+DFMO /TIGR4” value [2] was -358.8. The “NADPH, fold change TIGR4+DFMO /TIGR4” value [2] was 25.1, the “Ornithine, fold change TIGR4+DFMO /TIGR4” value [2] was -1.3 and the “Putrescine, fold change TIGR4+DFMO /TIGR4” value [2] was -1.9. The “Pyruvate, fold change TIGR4+DFMO /TIGR4” value [2] was -1.74, the “S-adenosylmethionine, fold change TIGR4+DFMO /TIGR4” value [2] was 64.2 and the “Sedoheptulose 7-phosphate, fold change TIGR4+DFMO /TIGR4” value [2] was -13.5. For the same compound, the “Spermidine, fold change TIGR4+DFMO /TIGR4” value [2] was -3.1, the “Spermine, fold change TIGR4+DFMO /TIGR4” value [2] was 26.6 and the “Tetrahydrofolate, fold change TIGR4+DFMO /TIGR4” value [2] was -1.4. For the same compound, the “UDP, fold change TIGR4+DFMO /TIGR4” value [2] was -53.1, the “UDP-Galactose, fold change TIGR4+DFMO /TIGR4” value [2] was -66.5 and the “UDP-Glucose, fold change TIGR4+DFMO /TIGR4” value [2] was -66.5. For the same compound, the “UDP-N-acetylfucosamine, fold change TIGR4+DFMO /TIGR4” value [2] was 2.3, the “UDP-N-acetylgalactosamine, fold change TIGR4+DFMO /TIGR4” value [2] was -18.9 and the “UDP-N-acetylglucosamine, fold change TIGR4+DFMO /TIGR4” value [2] was -18.9. For the same compound, the “UDP-N-acetylmannosamine, fold change TIGR4+DFMO /TIGR4” value [2] was -18.9, the “UDP-N-acetylmuramic acid, fold change TIGR4+DFMO /TIGR4” value [2] was -259.2 and the “UMP, fold change TIGR4+DFMO /TIGR4” value [2] was -2.1.
